Read-outs that look alike come from different tables or passages of the source.
Assays:
SW620 tumors = assay: Subcutaneous xenograft tumor growth; assay type: in vivo, Swiss nu/nu mice
Description: All procedures including animal use were performed in accordance with the Institutional Ethical Committee of Animal Care in Geneva and the Swiss Cantonal Veterinary Office (Authorization number GE‐136‐19). Briefly, female and male Swiss nu/nu mice aged 6–8 weeks were obtained from Charles River (Écully, France). For subcutaneous xenografts mice were inoculated in the left flank with 5x10^6 DLD1 or SW620 cells suspended in 100 µL of cell culture medium, supplemented with 1% FBS. Treatment was initiated when palpable tumors had formed (approximately 30 mm^3) on day 4 for DLD1 and day 5 for the SW620 model.
Treatment was initiated once tumor growth was confirmed with bioluminescence measurements. Drugs were administered through oral gavage based on average body weight of the males (100 µL/mouse) and females (80 µL/mouse) at various concentrations, see Tables S10 and S11.
Solution A: step (1) 30% PEG 400 + 5% propylene glycol + 0.5% Tween 80 and (2) 64.5% sterile H2O. Solution B: step (1) 10% DMSO, (2) 30% PEG 300 + 5% Tween 80 and (3) 55% sterile H2O. Vemurafenib was prepared 2x concentrated (half or three/sixth of total solution), and the remaining drugs were prepared 6x concentrated (one/sixth of total solution), after which drugs were diluted to prepare 1x drug concentrations for the ODC or single drugs using the other drugs or complete solvent solutions without drugs for lower concentrations. FOLFOX was administered as 6 mg/kg oxaliplatin two hours before administration of 90 mg/kg leucovorin and 50 mg/kg (DLD1) or 25 mg/kg (SW620) 5‐fluorouracil at day 1 and a repeat of 5‐fluorouracil dosing on day 2.
The Bliss independence model can be used to evaluate the drug interaction potential of a drug mixture. The model is based on the principle that each drug has an independent drug mechanism of action, but all contribute to a common result (e.g., cell death or tumor volume inhibition). The model is based on the probability theory and requires the drug activity of each drug at the selected dose to predict the inhibition rate (IR) at additive doses. For in vivo tumor volume results, we predicted the IR based on the fraction of tumor volume remaining after single‐drug treatment of each of the drugs vs 100% CTRL (F1,2,3,4), using the following formula: IR = […].

[1] = 0-24h, oral, cited from earlier work
HCT116 cells = assay: Tunneling nanotubule (TNT) quantification, F-actin/DAPI staining; assay type: cell-based, human
SW620 cells = assay: CellTiter-Glo metabolic ATP activity assay, 2D culture; assay type: cell-based, human; settings: low-dose single drug (hormetic dose effect)
Description: Drugs were dissolved in DMSO and stored at −80, and aliquots were thawn prior to each use. Drugs were dissolved at concentrations resulting in in vitro experimental conditions 0.15% DMSO maximum in the culture medium. […] The 48‐hour retreatment was performed by adding another volume of media containing a 1x concentration of drugs to not affect the final concentration in the wells.
Drug treatment activity in 2D and 3D cultures was measured using the CellTiter‐Glo® cell metabolic activity (ATP) assays (G7572 and G9683, Promega, Madison, WI, USA), according to the manufacturer`s instructions. Assay bioluminescence was detected using the BioTek Cytation 3 and corresponding Gen5 Image software version 3.04 at standard settings.
The next step is the drug combination screening in Search 1 (11 drugs in 155 combinations) according to the OACD resolution IV matrix and performed in the CRC and the nonmalignant CCD841CoN cell simultaneously. The resulting output of the drug combination activity was measured in cell metabolic activity (ATP levels, % CTRL) to represent cell viability and consisted of the average of technical triplicate values. The experimental data points are then used for step‐wise second‐order linear regression analysis by Matlab®. This model mathematically describes the relationship between the drug combination input and output activity of each possible two‐drug combination. […]

[2] = regorafenib 30 mg/kg, Exp 4, Day 22
[3] = regorafenib 30 mg/kg, Exp 6, Day 20
[4] = regorafenib 30 mg/kg, Exp 8, Day 19
[5] = selumetinib 0.2 mg/kg, Exp 6, Day 20
[6] = selumetinib 0.2 mg/kg, Exp 8, Day 19
[7] = selumetinib 1 mg/kg, Exp 4, Day 22
[8] = selumetinib 10 mg/kg, Exp 4, Day 22
[9] = vemurafenib 75 mg/kg, Exp 6, Day 20

CNC(=O)c1cc(Oc2ccc(NC(=O)Nc3ccc(Cl)c(C(F)(F)F)c3)c(F)c2)ccn1 [regorafenib]
% CTRL (tumor volume) (SW620 tumors; [2]): 117 45 20 % CTRL | Volume (SW620 tumors; [2]): 567 220 98 mm^3 | % CTRL (tumor volume) (SW620 tumors; [3]): 90 78 35 % CTRL | Volume (SW620 tumors; [3]): 468 407 182 mm^3 | % CTRL (tumor volume) (SW620 tumors; [4]): 44 18 10 % CTRL | Volume (SW620 tumors; [4]): 278 111 64 mm^3 | AUC ([1]; 160 mg/kg, 3 wk on/ 1 wk off, ref 12): 50260 ng·h/mL | AUC ([1]; 160 mg/kg, 3 wk on/ 1 wk off, ref 13): 58300 ng·h/mL

Cn1cnc2c(F)c(Nc3ccc(Br)cc3Cl)c(C(=O)NOCCO)cc21 [selumetinib]
% CTRL (tumor volume) (SW620 tumors; [5]): 76 41 21 % CTRL | Volume (SW620 tumors; [5]): 393 214 107 mm^3 | % CTRL (tumor volume) (SW620 tumors; [6]): 93 5 3 % CTRL | Volume (SW620 tumors; [6]): 588 30 21 mm^3 | % CTRL (tumor volume) (SW620 tumors; [7]): 67 55 24 % CTRL | Volume (SW620 tumors; [7]): 323 265 118 mm^3 | % CTRL (tumor volume) (SW620 tumors; [8]): 43 20 9 % CTRL | Volume (SW620 tumors; [8]): 209 95 43 mm^3

CCCS(=O)(=O)Nc1ccc(F)c(C(=O)c2c[nH]c3ncc(-c4ccc(Cl)cc4)cc23)c1F [vemurafenib]
% CTRL (tumor volume) (SW620 tumors; [9]): 65 42 21 % CTRL | Volume (SW620 tumors; [9]): 337 219 109 mm^3 | % CTRL (tumor volume) (SW620 tumors; vemurafenib 75 mg/kg, Exp 8, Day 19): 94 48 58 % CTRL | AUC ([1]; 960 mg/kg twice daily): 131000 ng·h/mL | AUC ([1]; 960 mg/kg twice daily, ref EPAR 002409): 21100 ng·h/mL | cells forming tunneling nanotubules (TNTs, > 10 µm) (HCT116 cells; single drug (CTRL 9.5%)): 14.0% | TNT length (HCT116 cells; single drug (CTRL 21 µm), nonsignificant): 32 µm | effect on cell viability (SW620 cells): increased cell viability
